Data reported in PubChem BioAssay (NCI).
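All cell lines were grown in 96-well plates and treated with compound for 48 hours. TGI: concentration producing complete growth inhibition.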

Key:
Experiment in all cases: NCI tumour cell line growth inhibition, 48 h
HOP-62 NSCLC = system: HOP-62 NSCLC
CAKI-1 renal = system: CAKI-1 renal
PC-3 prostate = system: PC-3 prostate
MDA-N = system: MDA-N
OVCAR-4 ovarian = system: OVCAR-4 ovarian
SF-539 CNS = system: SF-539 CNS
UO-31 renal = system: UO-31 renal
IGROV1 ovarian = system: IGROV1 ovarian
KM12 colon = system: KM12 colon

Row | Compound | TGI (HOP-62 NSCLC) [µM] | TGI (CAKI-1 renal) [µM] | TGI (PC-3 prostate) [µM] | TGI (MDA-N) [µM] | TGI (OVCAR-4 ovarian) [µM] | TGI (SF-539 CNS) [µM] | TGI (UO-31 renal) [µM] | TGI (IGROV1 ovarian) [µM] | TGI (KM12 colon) [µM]
1 | CC(=O)OCC1OC(n2c(N)c(C#N)c(-c3ccccc3)c(C#N)c2=S)C(OC(C)=O)C(OC(C)=O)C1OC(C)=O (stereo unspecified) | 45 | > 100 | > 100 | > 100 | > 100 | > 100 | > 100 | > 100 | > 100
2 | CC[N+]1(C)CCC(O)(c2ccc(Cl)cc2)C(C(=O)c2ccc(Cl)cc2)C1 (stereo unspecified) | 46.8 | – | 33 | 41.3 | 78.4 | – | 34.5 | 47.9 | 31.7
3 | COc1ccc(Cc2nc3cc(C(F)(F)F)ccc3n2CCCN(C)C)cc1 | > 100 | 56 | 75 | – | 80.4 | – | 1.04 | 78.9 | 30.3
4 | O=C1NC2(CCCCC2)N=C2C(Cl)CCCC12Cl (stereo unspecified) | > 100 | – | > 100 | > 100 | > 100 | > 100 | > 100 | > 100 | > 100
5 | Cc1nc2c(o1)C(=O)c1ccccc1/C2=N/c1ccccn1 | 37.8 | 47.9 | > 100 | 32.6 | 28.2 | 33.2 | 39.3 | 51.4 | 42.2
6 | CC(C)OP(=O)(CN(C)/C(F)=N\C(F)(F)F)OC(C)C | > 100 | > 100 | > 100 | > 100 | – | > 100 | > 100 | > 100 | > 100
7 | N#Cc1[nH]c(=O)n(-c2ccc(Cl)cc2)c1N | > 10 | > 10 | > 10 | > 10 | > 10 | > 10 | – | > 10 | > 10
8 | O=P(O)(O)C(O)/C=C/c1ccccc1 (stereo unspecified) | > 100 | > 100 | > 100 | > 100 | > 100 | – | > 100 | > 100 | > 100
9 | CC(=O)Nc1ccc(CNc2cc(=O)[nH]c(=O)[nH]2)cc1 | > 100 | > 100 | > 100 | > 100 | > 100 | > 100 | > 100 | > 100 | > 100
10 | CCOc1ccc2c(c1)/C(=C(\C(Cl)=C(Cl)Cl)[N+](=O)[O-])N2 | > 100 | > 100 | > 100 | > 100 | > 100 | > 100 | > 100 | – | > 100
11 | CN1C(c2ccccc2)=CC(=O)C(O)=C(c2ccccc2)S1(=O)=O | > 100 | > 100 | > 100 | > 100 | > 100 | > 100 | > 100 | > 100 | > 100
12 | Cc1cccc(Nc2cn(COCc3ccccc3)c(=O)[nH]c2=O)c1 | 86.3 | > 100 | > 100 | > 100 | > 100 | – | > 100 | > 100 | > 100
13 | CC(=O)O[C@H]1C[C@]2(C)C(CCC3O[C@@]32C)[C@@]2(CC(c3ccoc3)OC2O)[C@@H]1C (stereo partly specified) | – | > 100 | > 100 | > 100 | > 100 | > 100 | > 100 | > 100 | > 100
